Measured values from patent US5110815A, “5-amino-5,6,7,8-tetrahydroquinolines and related compounds and pharmaceutical use” (Hoechst-Roussel Pharmaceuticals Inc., priority 1990, dated 1992).
Counter-ions that a name gives are not always drawn.

Key:
[1] = system: scopolamine induced memory deficits; test: dark avoidance assay (reversal of scopolamine induced memory deficit); type: in vivo, male CFW mice; settings: sc, scopolamine 3.0 mg/kg sc
From the text: The 5-amino-5,6,7,8-tetrahydroquinolines and related compounds of the present invention are useful as agents for the relief of memory dysfunction, particularly dysfunctions associated with decreased cholinergic activity such as those found in Alzheimer's disease. […] In this assay, three groups of 15 male CFW mice were used, a vehicle/vehicle control group, a scopolamine/vehicle group, and a scopolamine/drug group. Thirty minutes prior to training, the vehicle/vehicle control group received normal saline subcutaneously, and the scopolamine/vehicle and scopolamine/drug groups received scopolamine subcutaneously (3.0 mg/kg, administered as scopolamine hydrobromide). Five minutes prior to training, the vehicle/vehicle control and scopolamine/vehicle groups received distilled water and the scopolamine/drug group received the test compound in distilled water.
The training/testing apparatus consisted of a plexiglass box approximately 48 cm long, 30 cm high and tapering from 26 cm wide at the top to 3 cm wide at the bottom. The interior of the box was divided equally by a vertical barrier into a light compartment (illuminated by 25-watt reflector lamp suspended 30 cm from the floor) and a dark compartment (covered). There was a hole at the bottom of the barrier 2.5 cm wide and 6 cm tall and a trap door which could be dropped to prevent an animal from passing between the two compartments. A Coulbourn Instruments small animal shocker was attached to two metal plates which ran the entire length of the apparatus, and a photocell was placed in the dark compartment 7.5 cm from the vertical barrier and 2 cm off the floor. The behavioral session was controlled by PDP 11/34 minicomputer.
At the end of the pretreatment interval, an animal was placed in the light chamber directly under the light fixture, facing away from the door to the dark chamber. The apparatus was then covered and the system activated. If the mouse passed through the barrier to the dark compartment and broke the photocell beam within 180 seconds, the trap door dropped to block escape to the light compartment and an electric shock was administered at an intensity of 0.4 milliamps for three seconds. The animal was then immediately removed from the dark compartment and placed in its home cage. […] The latency in seconds for each mouse was recorded.
The test day latency in seconds for each animal was recorded and the animals were then discarded.
The high degree of variability (due to season of the year, housing conditions, and handling) found in one trial passive avoidance paradigm is well known. To control for this fact, individual cutoff (CO) values were determined for each test, compensating for interest variability. […] Thus, the CO value was defined as the second highest latency time in the control group to more accurately reflect the 1/15 expected control responders in each test group. Experiments with a variety of standards repeated under a number of environmental conditions led to the development of the following empirical criteria: for a valid test, the CO value had to be less than 120 sec and the vehicle/vehicle control group had to have at least 5/15 animals with latencies greater than CO. For a compound to be considered active the scopolamine/compound group had to have at least 3/15 mice with latencies greater than CO.
The results of the dark avoidance test are expressed as the number of animals per group (%) in which this scopolamine induced memory deficit is blocked as measured by an increase in the latency period.

Acetylcholinesterase = molecular target: T1, Acetylcholinesterase (Rattus norvegicus, UniProt P37136); test: in vitro inhibition of acetylcholinesterase activity (modified Ellman assay, rat corpora striata homogenate); type: biochemical, Male Wistar rats; settings: acetylthiocholine 5 millimolar final, pH 7.2, 10 min preincubation at 37° C
T1 construct: corpora strita dissected free, weighed and homogenized in 19 volumes; from tissue; host or cells: corpora striata of male Wistar rats, crude homogenate in 0.05 M phosphate buffer pH 7.2
Procedure: In this assay, a modification of a test described by G. L. Ellman, et al., Biochem. Pharmacol., 7, 88 (1961), the following reagents are prepared and employed:
1. 0.05M Phosphate Buffer (pH 7.2)
A solution of monobasic sodium phosphate monhydrate (6.85 g) in distilled water (100 ml) is added to a solution of dibasic sodium phosphate heptahydrate (13.4 g) and distilled water (100 ml) until a pH of 7.2 was attained. The solution was diluted 1 to 10 with distilled water.
The 0.05M Phosphate Buffer (pH 7.2) was added to acetylthiocholine (198 mg) to a total volume of 100 ml, i.e., a quantity sufficient (gs) to 100 ml.
3. 5,5-Dithiobisnitrobenzoic Acid in Buffer
The 0.05M Phosphate Buffer (pH 7.2) was added to 5,5-dithiobisnitrobenzoic acid to a total volume of 100 ml, i.e., a quantity sufficient (gs) to 100 ml.
4. Stock Solution of Drug
A 2 millimolar stock solution of the test drug is prepared in a quantity sufficient of a suitable solvent, either acetic acid or dimethyl sulfoxide to volume with 5,5-Dithiobisnitrobenzene Acid in Buffer. Stock Solution of Drug is serially diluted (1:10) so that the final cuvette concentration is 10^-4 molar.
Male Wistar rats are decapitated, brains rapidly removed, corpora strita dissected free, weighed and homogenized in 19 volumes (approximately 7 mg potein/ml) of 0.05M phosphate Buffer (pH 7.2) using a Potter-Elvehjem homogenizer. A 25 μl aliquot of this suspension is added to 1 ml of the vehicle or various concentrations of the test drug and preincubated for 10 minutes at 37° C. Enzyme activity is measured with a Beckman DU-50 spectrophotometer with the following software and instrument settings:
1. Kinetics Soft-Pac™ Module #598273;
6. Cuvettes--2 ml cuvettes using auto 6--sampler;
7. Blank--1 for each substrate concentration;
8. Interval time--15 seconds (15 or 30 seconds for kinetics);
9. Total time--5 minutes (5 or 10 minutes for kinetics);
13. Results--yes (gives slope); and
Reagents are added to the blank and sample cuvettes as follows:
Blank values are determined for each run to control for non-enzymatic hydrolysis of substrate and these values are automatically subtracted by the Kindata program available on kinetics soft-pac module. This program also calculates the rate of absorbance change for each cuvette.
5,5-Dithiobisnitrobenzoic Acid concentration is 0.5 millimolar yielding 0.25 millimolar final concentration. [formula]

T1 sequence (P37136 32-614): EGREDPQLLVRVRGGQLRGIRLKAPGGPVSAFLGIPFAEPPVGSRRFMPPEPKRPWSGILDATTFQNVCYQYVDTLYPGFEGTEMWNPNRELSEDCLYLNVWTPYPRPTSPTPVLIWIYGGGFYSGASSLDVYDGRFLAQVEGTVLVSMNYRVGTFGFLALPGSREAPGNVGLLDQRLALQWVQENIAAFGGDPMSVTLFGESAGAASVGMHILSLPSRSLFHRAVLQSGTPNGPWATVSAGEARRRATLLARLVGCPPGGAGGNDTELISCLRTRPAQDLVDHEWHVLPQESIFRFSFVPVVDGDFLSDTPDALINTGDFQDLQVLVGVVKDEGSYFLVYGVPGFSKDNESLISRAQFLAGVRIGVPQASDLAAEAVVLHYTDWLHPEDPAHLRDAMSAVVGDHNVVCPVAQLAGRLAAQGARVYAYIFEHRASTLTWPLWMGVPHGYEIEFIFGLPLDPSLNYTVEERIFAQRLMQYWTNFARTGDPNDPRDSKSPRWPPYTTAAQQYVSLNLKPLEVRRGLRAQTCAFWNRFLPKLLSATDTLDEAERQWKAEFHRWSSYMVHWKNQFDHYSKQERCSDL

SMILES	Percent of Animals with Scopolamine Induced Memory Deficit Reversal ([1]; dose 1.0 mg/kg)	IC50 (Acetylcholinesterase)	also measured
CNC(=O)Oc1ccc2c(c1)[C@]1(C)CCN(C)[C@@H]1N2C [physostigmine, reference compound]			Percent of Animals with Scopolamine Induced Memory Deficit Reversal ([1]; dose 0.31 mg/kg): 20%
CC(=O)N(OCc1ccccc1)C1CCCc2nc(OCc3ccccc3)ccc21.Cl (stereo not shown) [N-(Phenylmethoxy)-N-[5,6,7,8-tetrahydro-2-(phenylmethoxy)-5-quinolinyl]acetamide hydrochloride]	20%		
COc1ccc(CCNC2CCCc3c2ccc(=O)n3C)cc1 (stereo not shown) [5,6,7,8-Tetrahydro-5-[[2-(4-methoxyphenyl)ethyl]amino]-1-methyl-2(1H)-quinolinone]		9.6 µM	Percent of Animals with Scopolamine Induced Memory Deficit Reversal ([1]; dose 0.3 mg/kg): 27%
Cl.Cl.Cn1c2c(ccc1=O)C(NCCc1ccccc1)CCC2.O (stereo not shown) [5,6,7,8-Tetrahydro-1-methyl-5-[(2-phenylethyl)amino]-2(1H)-quinolinone dihydrochloride monohydrate]	33%		
Cn1c2c(ccc1=O)C(NCCc1ccc(Cl)c(Cl)c1)CCC2 (stereo not shown) [5-[[2-(3,4-Dichlorophenyl)ethyl]amino]-5,6,7,8-tetrahydro-1-methyl-2(1H)-quinolinone]	21%	2.9 µM	
CCCn1c2c(ccc1=O)C(NCCc1ccccc1)CCC2 (stereo not shown) [5,6,7,8-Tetrahydro-5-[(2-phenylethyl)amino]-1-propyl-2(1H)-quinolinone fumarate]		3.1 µM	
CC(=O)NC1(C)CCCc2[nH]c(=O)ccc21 (stereo not shown) [N-(1,2,5,6,7,8-Hexahydro-5-methyl-2-oxo-5-quinolinyl)acetamide]			Percent of Animals with Scopolamine Induced Memory Deficit Reversal ([1]; dose 0.16 mg/kg): 20%
Cn1c2c(ccc1=O)C(NCCc1ccc(Cl)cc1)CCC2 (stereo not shown) [5-[[2-(4-Chlorophenyl)ethyl]amino]-5,6,7,8-tetrahydro-1-methyl-2(1H)-quinolinone]		6.6 µM	
